Data as given in PMC9861386, “N-Heterocyclic Carbene-Iridium Complexes as Photosensitizers for In Vitro Photodynamic Therapy to Trigger Non-Apoptotic Cell Death in Cancer Cells” (Molecules, 2023).

Legend:
NIH3T3 = experiment: MTT cytotoxicity, 48 h; format: cell-based, murine
Description: The in vitro cytotoxicity of iridium(III) complexes 4a–4g was first evaluated against cancer cell lines PC-3 (human prostate) and T24 (human bladder) and the non-cancerous NIH-3T3 cell line (murine fibroblasts) using colorimetric MTT tests after 48 h of treatment. The dimeric iridium precursor [IrCl(ppy)2]2 was used as reference and the results are summarized in Table S1 (Supplementary Materials) in the supporting information file. […] The complexes were also evaluated for their cytotoxicity towards healthy NIH-3T3 cells, giving access to the selectivity index (SI). […] No linear correlation between lipophilicity and anti-cancer activity was found for the iridium(III) complexes 4a–4g. For the following biological studies, we focused on the C1 series.
Table S1. Cytotoxic activity of iridium(III) NHC complexes 4a−4g expressed as GI50 (μM) values towards selected cancer and normal cell lines as determined by MTT assay (48 h).a Complex PC-3 T24 NIH3T3 SI (PC-3) SI (T24) […]
a GI50 values correspond to the concentration of complexes causing 50 % inhibition of cell growth.
Data were obtained from three independent experiments.
The cytotoxic effects of the NHC precursors, the imidazolium salts, which represents the potential hydrolysis and/or degradation products of the complexes, have been published before [SI-1, SI-2]. […]

[1] = Octanol–water partition coefficient, shake-flask method; format: physicochemical; settings: n-octanol/water, UV absorbance 260 nm
Description: Lipophilicities of all complexes have been measured by the classical shake-flask method, using UV absorption. The Log p values range from -0.063 to 0.861 in increasing order –0.063 (4a), 0.035 (4d), 0.519 (4f), 0.581 (4c), 0.842 (4b), 0.847 (4e) and 0.861 (4g).
The octanol–water partition coefficients (P) of 4a to 4g were determined using a shake-flask method. Water (100 mL, distilled after milli-Q purification) and n-octanol (100 mL, Sigma-Aldrich, St. Louis, MO, USA, ACS spectrophotometric grade, ≥99%) were shaken together for 24 h to allow saturation of both phases. Stock solutions of the […] compounds (50 μM) were prepared in the aqueous phase and aliquots (1 mL) of each of these stock solutions were then added to an equal volume of the n-octanol phase. The resultant biphasic solutions were mixed for 1 h and then centrifuged (3000× g, 5 min) (Eppendorf Centrifuges 5415R and 5804R) to separate the phases. The concentrations of the complexes in the organic and aqueous phases were then determined using UV absorbance spectroscopy (260 nm). Log P was defined as the logarithm of the ratio of the concentrations of the studied complex in the organic and aqueous phases (Log P = Log {[Ir(org)]/[Ir(aq)]}; values reported are the means of at least two separate determinations).

[2] = system: panel of five cancer cell lines (T24, PC-3, MCF7, A549, HeLa); experiment: MTT cell viability, 72 h, pooled over the cancer cell panel; format: cell-based, human; settings: for Average SI vs MC3T3, Blue light: GI50 MC3T3 / GI50 of all irradiated cancer cell lines; for Average SI vs NIH, Blue light: GI50 NIH-3T3 / GI50 of all irradiated cancer cell lines
Description: For all biology experiments, the compounds were solubilized in DMSO to reach a final fixed concentration equal to 0.1% v/v to avoid cytotoxicity caused by DMSO [89]. The results are normalized to controls (0.1% v/v DMSO). Depending on the cell type, approximatively 1000 to 10,000 cells/cm^2 were seeded in 48-well plates for MTT, ATP and GSH assays and 60 mm Petri dishes for Western blots. Cells were allowed to attach overnight and then incubated for 4 h with the different complexes (in the dark), then irradiated for 10 min, followed by an incubation in the dark up to 72 h.
Irradiation was conducted using an in-house device: a series of blue light LEDs selected according to the absorption spectra of the compounds at a 458 nm wavelength with an emitted power of 9.6 watts. The absorbed energy, or irradiance, was measured at 458 nm with a Thorlabs Optical Power Meter PM100A at 5 and 10 cm distance between the cell layer and the light source and expressed as mW/cm^2.
A tetrazolium-based MTT reagent (3-(4,5-dimethylthiazol-2-yl)-2,5-diphenyltetrazolium bromide) was used to determine cell viability, as previously described. After 72 h of treatment at 37 °C and 5% CO2, cells were incubated with 25 μL MTT solution (5 mg/mL; Sigma-Aldrich) for 4 h. After solubilization with 500 μL of lysis buffer (DMSO), formazan was quantified by spectrophotometry with a microplate reader at 570 nm absorbance (ClarioSTAR, BMG LabTech, Champigny-sur-Marne, France). GI50 values corresponding to the concentration that caused 50% inhibition of cell proliferation were calculated from dose–response curves obtained by nonlinear regression analysis. All results were calculated from data obtained in at least three independent experiments.

Compound | GI50 (NIH3T3) | Log P [1] | Average SI vs MC3T3, Blue light [2] | Average SI vs NIH, Blue light [2]
CC(C)[n+]1ccn2[c]1[Ir-3]13([c]4ccccc4-c4cccc[n+]41)([c]1ccccc1-c1cccc[n+]13)[c]1n(cc[n+]1C(C)C)C2.F[P-](F)(F)(F)(F)F [Complex 4a] | 3.3 µM | –0.063 | – | –
CC(C)C[n+]1ccn2[c]1[Ir-3]13([c]4ccccc4-c4cccc[n+]41)([c]1ccccc1-c1cccc[n+]13)[c]1n(cc[n+]1CC(C)C)C2.F[P-](F)(F)(F)(F)F [Complex 4b] | 3.5 µM | 0.842 | 8.3 | 18
F[P-](F)(F)(F)(F)F.c1ccc(C[n+]2ccn3[c]2[Ir-3]24([c]5ccccc5-c5cccc[n+]52)([c]2ccccc2-c2cccc[n+]24)[c]2n(cc[n+]2Cc2ccccc2)C3)cc1 [Complex 4c] | 7.1 µM | 0.581 | 12.1 | 24.3
CSc1ccc(-[n+]2ccn3[c]2[Ir-3]24([c]5ccccc5-c5cccc[n+]52)([c]2ccccc2-c2cccc[n+]24)[c]2n(cc[n+]2-c2ccc(SC)cc2)C3)cc1.F[P-](F)(F)(F)(F)F [Complex 4d] | 8.5 µM | 0.035 | 8.6 | 13.2
